From US20040162221A1, “Pyrazole derivatives and herbicides containing the same” (IDEMITSU KOSAN CO., LTD., priority 1998, published 2004)

Columns and labels:
large crabgrass [1] = assay: Upland post-emergence treatment test, large crabgrass; assay type: in vivo; conditions: post-emergence spray at 3-4 leaf stage, 80 g/ha, 30th day after treatment, greenhouse
Excerpt: (§1) 97 Parts by weight of talc (trade name: Zeaklite, supplied by Zeaklite Industry) as a carrier, 1.5 parts by weight of alkylarylsulfonic acid salt (trade name: Neoplex, supplied by Kao-Atlas K.K.) as a surfactant and 1.5 parts by weight of a nonionic and anionic surfactant (trade names Sorpol 800A, supplied by Toho Chemical Co., Ltd.) were uniformly pulverized and mixed to prepare a carrier for a wettable powder.
(§2) 90 Parts by weight of the above carrier for a wettable powder and 10 parts by weight of one of the compounds of the present invention were uniformly pulverized and mixed to obtain herbicides. Further, in Comparative Herbicide Examples, comparative herbicides were also prepared from the following compounds (A) and (B) in the same manner.
(§3) Herbicidal efficacy and phytotoxicity to crops were determined on the basis of the ratio of remaining plant weight to plant weight in non-treated plot=(remaining plant weight in treated plot/plant weight in non-treated-plot)×100. The ratings were applied to the following biological tests.
(§4) Seeds of weeds velvetleaf, redroot pigweed, common ragweed, green foxtail and large crabgrass and seeds of corn were sown in 1/5,000-are Wagner pots filled with upland soil, and covered with upland soil. The seeds were grown in a greenhouse, and at the stage of 3˜4 leaves of these plants, a predetermined amount of the herbicide prepared in the above (1) was suspended in water, and the suspension was uniformly sprayed onto leaf and stalk portions at a rate of 2,000 liters/hectare. Then, the plants were grown in the greenhouse, and on the 30th day after the treatment, the herbicide was evaluated for herbicidal efficacy and phytotoxicity to the corn on the basis of the ratings shown in (2).

common ragweed [2] = assay: Upland post-emergence treatment test, common ragweed; assay type: in vivo, common ragweed (Ambrosia artemisilfolia); conditions: post-emergence spray at 3-4 leaf stage, 80 g/ha, 30th day after treatment, greenhouse
Excerpt: as §1, §2, §3, §4

green foxtail [3] = assay: Upland pre-emergence treatment test, green foxtail; assay type: in vivo, green foxtail (Setaria viridis); conditions: pre-emergence soil surface spray, 80 g/ha, 20th day after treatment, greenhouse
Excerpt: as §1, §2, §3
(§5) Seeds of weeds such as velvetleaf, common lambsquaters, redroot pigweed, common ragweed, green foxtail and large crabgrass and seeds of corn were sown in 1/5,000-are Wagner pots filled with upland soil, and covered with upland soil. Then, a predetermined amount of the herbicide prepared in the above (1) was suspended in water, and the suspension was uniformly sprayed onto the soil surface at a rate of 2,000 liters/hectare. Then, the seeds were grown in a greenhouse, and on the 20th day after the treatment, the herbicide was evaluated for herbicidal efficacy and phytotoxicity to corn on the basis of the ratings shown in (2).

corn [4] = assay: Upland pre-emergence treatment test, phytotoxicity to corn; assay type: in vivo; conditions: pre-emergence soil surface spray, 80 g/ha, 20th day after treatment, greenhouse
Excerpt: as §1, §2, §3, §5

large crabgrass [5] = assay: Upland pre-emergence treatment test, large crabgrass; assay type: in vivo; conditions: pre-emergence soil surface spray, 80 g/ha, 20th day after treatment, greenhouse
Excerpt: as §1, §2, §3, §5

green foxtail [6] = assay: Upland post-emergence treatment test, green foxtail; assay type: in vivo, green foxtail (Setaria viridis); conditions: post-emergence spray at 3-4 leaf stage, 80 g/ha, 30th day after treatment, greenhouse
Excerpt: as §1, §2, §3, §4

common lambsquaters = assay: Upland pre-emergence treatment test, common lambsquaters; assay type: in vivo, common lambsquaters (Chenopodium album); conditions: pre-emergence soil surface spray, 80 g/ha, 20th day after treatment, greenhouse
Excerpt: as §1, §2, §3, §5

corn [7] = assay: Upland post-emergence treatment test, phytotoxicity to corn; assay type: in vivo; conditions: post-emergence spray at 3-4 leaf stage, 80 g/ha, 30th day after treatment, greenhouse
Excerpt: as §1, §2, §3, §4

redroot pigweed [8] = assay: Upland pre-emergence treatment test, redroot pigweed; assay type: in vivo, redroot pigweed (Amaranthus retroflexus); conditions: pre-emergence soil surface spray, 80 g/ha, 20th day after treatment, greenhouse
Excerpt: as §1, §2, §3, §5

redroot pigweed [9] = assay: Upland post-emergence treatment test, redroot pigweed; assay type: in vivo, redroot pigweed (Amaranthus retroflexus); conditions: post-emergence spray at 3-4 leaf stage, 80 g/ha, 30th day after treatment, greenhouse
Excerpt: as §1, §2, §3, §4

velvetleaf [10] = assay: Upland pre-emergence treatment test, velvetleaf; assay type: in vivo, velvetleaf (Abutilon theophrasti); conditions: pre-emergence soil surface spray, 80 g/ha, 20th day after treatment, greenhouse
Excerpt: as §1, §2, §3, §5

velvetleaf [11] = assay: Upland post-emergence treatment test, velvetleaf; assay type: in vivo, velvetleaf (Abutilon theophrasti); conditions: post-emergence spray at 3-4 leaf stage, 80 g/ha, 30th day after treatment, greenhouse
Excerpt: as §1, §2, §3, §4

common ragweed [12] = assay: Upland pre-emergence treatment test, common ragweed; assay type: in vivo, common ragweed (Ambrosia artemisilfolia); conditions: pre-emergence soil surface spray, 80 g/ha, 20th day after treatment, greenhouse
Excerpt: as §1, §2, §3, §5
Note: ranges in brackets are in %.

Row | Structure (SMILES) | Herbicidal Efficacy FF = Large crabgrass (large crabgrass [1]) | Herbicidal Efficacy DD = Common ragweed (common ragweed [2]) | Herbicidal Efficacy EE = Green foxtail (green foxtail [3]) | Phytotoxicity Corn (corn [4]) | Herbicidal Efficacy FF = Large crabgrass (large crabgrass [5]) | Herbicidal Efficacy EE = Green foxtail (green foxtail [6]) | Herbicidal Efficacy BB = Common lambsquaters (common lambsquaters) | Phytotoxicity Corn (corn [7]) | Herbicidal Efficacy CC = Rough Pigweed (redroot pigweed [8]) | Herbicidal Efficacy CC = Redroot Pigweed (redroot pigweed [9]) | Herbicidal Efficacy AA = Velvetleaf (velvetleaf [10]) | Herbicidal Efficacy AA = Velvetleaf (velvetleaf [11]) | Herbicidal Efficacy DD = Common ragweed (common ragweed [12])
1 | CCCS(=O)(=O)Oc1c(C(=O)c2ccc3c(c2C)C(C)(C)CS3(=O)=O)cnn1C [Compound 4, 5-(1′-methyl-5′-n-propanesulfonyloxypyrazol-4′-yl)carbonyl-3,3,4-trimethyl-2,3-dihydrobenzothiophene-1,1-dioxide] | 5 (0) | 5 (0) | 5 (0) | − (100) | 5 (0) | 5 (0) | 5 (0) | − (100) | 5 (0) | 5 (0) | 5 (0) | 5 (0) | 5 (0)
2 | Cc1ccc(S(=O)(=O)Oc2c(C(=O)c3ccc4c(c3C)C(C)(C)CS4(=O)=O)cnn2C)cc1 [Compound 18] | 5 (0) | 5 (0) | 5 (0) | − (100) | 5 (0) | 5 (0) | 5 (0) | − (100) | 5 (0) | 5 (0) | 5 (0) | 5 (0) | 4 (1-20)
3 | Cc1c(C(=O)c2cnn(C)c2OC(=O)C2CCCCC2)ccc2c1C(C)(C)CS2(=O)=O [Compound 37] | 5 (0) | 5 (0) | 5 (0) | − (100) | 5 (0) | 5 (0) | 5 (0) | − (100) | 5 (0) | 5 (0) | 5 (0) | 5 (0) | 5 (0)
4 | Cc1c(C(=O)c2cnn(C)c2OC(=O)c2ccccc2)ccc2c1C(C)(C)CS2(=O)=O [Compound 39] | 5 (0) | 5 (0) | 5 (0) | − (100) | 5 (0) | 5 (0) | 5 (0) | − (100) | 5 (0) | 5 (0) | 5 (0) | 5 (0) | 5 (0)
5 | Cc1c(C(=O)c2cnn(C)c2OCC(=O)c2ccccc2)ccc2c1C(C)(C)CS2(=O)=O [Compound 49, 5-(1′-methyl-5′-phenacyloxypyrazol-4′-yl)carbonyl-3,3,4-trimethyl-2,3-dihydrobenzothiophene-1,1-dioxide] | 5 (0) | 5 (0) | 5 (0) | − (100) | 5 (0) | 5 (0) | 5 (0) | − (100) | 5 (0) | 5 (0) | 5 (0) | 5 (0) | 5 (0)
6 | CCN(CC)CC.Cc1c(C(=O)c2cnn(C)c2O)ccc2c1C(C)(C)CS2(=O)=O [Compound 50, 5-(1′-methyl-5′-hydroxypyrazol-4′-yl)carbonyl-3,3,4-trimethyl-2,3-dihydrobenzothiophene-1,1-dioxide triethylamine salt] | 5 (0) | 5 (0) | 5 (0) | − (100) | 5 (0) | 5 (0) | 5 (0) | − (100) | 5 (0) | 5 (0) | 5 (0) | 5 (0) | 4 (1-20)
7 | Cc1c(C(=O)c2cnn(C)c2O)ccc2c1C(C)(C)CS2(=O)=O.[Na] [Compound 52, 5-(1′-methyl-5′-hydroxypyrazol-4′-yl)carbonyl-3,3,4-trimethyl-2,3-dihdyrobenzothiophene-1,1-dioxide sodium salt] | 5 (0) | 5 (0) | 4 (1-20) | − (100) | 5 (0) | 5 (0) | 5 (0) | − (100) | 5 (0) | 5 (0) | 4 (1-20) | 5 (0) | 4 (1-20)
